Read-outs that look alike come from different tables or passages of the source.
Assays:
[1] = test system: H.Ep.-2; experiment: Cytotoxicity, inhibition of cell proliferation to 50% of untreated controls; format: cell-based, human
Source text: (§1) In contrast to the previously reported 2'-substituted 9-β-D-arabinofuranosyl-2-haloadenines, the 2'-fluoro compounds were quite cytotoxic to three human cell lines, H.Ep.-2, CCRF-CEM, and K562, and the murine lukemia line, L1210.
(§2) Obviously, to be useful as anticancer agents, the nucleosides of the present invention must show the ability to kill cells in vitro. […] One cell line (L1210) is a murine lukemia, whereas the other three are human neoplasms. […] Many people today emphasize the importance of toxicity to human cell lines.

[2] = test system: CCRF-CEM; experiment: as above; format: cell-based, human; conditions: read-out: Cytotoxicity as IC50, CCRF-CEM
Source text: as §1, §2

[3] = test system: L1210; experiment: as above; format: cell-based; conditions: Mus musculus; L1210 murine leukemia line; read-out: Cytotoxicity as IC50, L1210
Source text: as §1, §2

[4] = biological target: E. coli purine nucleoside phosphorylase (Escherichia coli, UniProt P0ABP8); experiment: Phosphorolysis of nucleosides by purine nucleoside phosphorylase; format: biochemical; conditions: 0.5 mM nucleoside, 50 mM pH 8.0 phosphate buffer, HPLC, incubation 30-240 min, read-out: % Cleavage
Sequence of E. coli purine nucleoside phosphorylase (P0ABP8 2-239): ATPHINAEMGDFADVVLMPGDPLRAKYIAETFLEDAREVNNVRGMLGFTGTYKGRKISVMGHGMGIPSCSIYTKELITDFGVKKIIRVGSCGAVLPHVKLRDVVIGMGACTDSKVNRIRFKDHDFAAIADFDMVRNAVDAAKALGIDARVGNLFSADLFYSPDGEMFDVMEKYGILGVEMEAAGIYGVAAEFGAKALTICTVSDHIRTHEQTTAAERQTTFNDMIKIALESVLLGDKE
Source text: Subsequently, the phosphorolysis of these compounds were compared by E. coli purine nucleoside phosphorylase. The […] and 2'-deoxyribonucleosides are rapidly cleaved by this enzyme, whereas the […] nucleosides substituted at 2' by Cl, N3, or NH2 are almost completely resistant. The 2'-fluoro compounds are less resistant to cleavage, being cleaved at roughly one-third the rate of the […] and 2'-deoxynucleosides. This reduction in cleavage rate may be acceptable for pharmaceutical purposes as phosphorylation in mammalian cells is quite rapid.
More specifically, an enzyme reaction mixture consisting of 0.5 mM nucleoside substrate, 50 mM pH 8.0 phosphate buffer and purine nucleoside phosphorylase in a final volume of 1.0 mL was allowed to incubate for 30, 60, 120, 180 and 240 minutes, and the amounts of nucleoside and substrate remaining were determined by HPLC.

[5] = biological target: T1, ribonucleotide reductase (Homo sapiens, UniProt P23921); conditions: cited from earlier work; for inhibition of ribonucleotide reductase (in words): 5'-triphosphate of the nucleoside analogue
T1 sequence (P23921 1-792): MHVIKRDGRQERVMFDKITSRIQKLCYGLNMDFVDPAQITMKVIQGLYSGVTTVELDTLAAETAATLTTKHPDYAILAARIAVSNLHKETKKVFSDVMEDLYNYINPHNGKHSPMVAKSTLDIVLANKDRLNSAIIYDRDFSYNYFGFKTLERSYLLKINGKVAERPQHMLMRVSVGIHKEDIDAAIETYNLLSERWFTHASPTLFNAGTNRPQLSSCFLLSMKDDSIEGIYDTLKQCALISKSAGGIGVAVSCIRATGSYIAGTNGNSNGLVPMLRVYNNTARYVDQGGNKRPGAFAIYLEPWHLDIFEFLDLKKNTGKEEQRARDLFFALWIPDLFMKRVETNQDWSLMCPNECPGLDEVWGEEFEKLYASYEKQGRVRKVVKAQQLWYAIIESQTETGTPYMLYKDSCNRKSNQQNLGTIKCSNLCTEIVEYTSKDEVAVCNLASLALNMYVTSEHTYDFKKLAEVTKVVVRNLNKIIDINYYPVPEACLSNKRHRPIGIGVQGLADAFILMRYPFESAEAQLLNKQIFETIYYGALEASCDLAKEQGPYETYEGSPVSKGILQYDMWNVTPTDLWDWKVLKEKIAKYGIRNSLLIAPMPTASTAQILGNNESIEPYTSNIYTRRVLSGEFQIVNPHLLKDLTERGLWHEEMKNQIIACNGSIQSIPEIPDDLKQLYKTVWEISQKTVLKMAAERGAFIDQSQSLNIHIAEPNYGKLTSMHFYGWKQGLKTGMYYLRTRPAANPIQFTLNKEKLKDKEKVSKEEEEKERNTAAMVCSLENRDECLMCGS

[6] = test system: K562; experiment: Cytotoxicity, inhibition of cell proliferation to 50% of untreated controls; format: cell-based, human
Source text: as §1, §2

[7] = test system: P388 leukemia; experiment: In vivo activity vs ip P388 leukemia, ip administration; set-up: species or system CD2F1 mice
Source text: This, coupled with the lower toxicity of the cleavage product, 2-chloroadenine, relative to 2-fluoroadenine, make this compound a preferred compound of the present invention. The following Table III provides a summary of the in vivo activity of the 9-(2-fluoro-2-deoxy-β-D-arabinofuranosyl)-2-haloadenines vs P388 leukemia cell line in which CD2F1 mice were implanted ip with 10^6 P388 leukemia cells on day 0 in accordance with the protocol of Waud et al [Cancer Res. 50:3232 (1990)].
In the above table, the optimal dose refers to mg/kg/dose (≤LD50); ILS refers to the increase in life span; and the log change refers to the change in viable tumor cell population at the end of therapy compared to that at the start of therapy, based on the median day of death among the animals that died. The data in this table is presented in accordance with the National Cancer Institute activity criteria for drug testing in which an ILS of 20-74% is considered moderate activity, and an ILS of 75% or more is considered good activity.

[8] = relative to 9-β-D-arabinofuranosyl-2-fluoroadenine; cited from earlier work
[9] = test system: K562 cells; conditions: cited from earlier work
[10] = test system: P388 leukemia; experiment: Antitumor activity against ip P388 leukemia, oral administration; format: in vivo, mice; conditions: oral 67 mg/kg/dose
Procedure: In a similar test, compound 3d was administered orally and evaluated for antitumor activity against ip P388 leukemia cells. As the data in Table III indicates, the optimal regimen for the compound, administered ip, is in divided doses five on days 1, 5, and 9, a similar schedule was selected for the oral administration of this compound. In this set of experiments, an oral dosage of 67 mg/kg/dose, given q 6 h×4 on days 1, 5, and 9, effected a reduction in tumor burden of 1.7 log10 units, a figure which is approximately 2.5 log10 units less that that obtained in studies using ip drug administration.

[11] = HEp-2, H.Ep.-2 human cell line, read-out: Cytotoxicity as IC50, H.Ep.-2
[12] = K562 human cell line, read-out: Cytotoxicity as IC50, K562
[13] = 25 mg/kg/dose ip, q 3 h × 8 (Days 1, 5, 9)
[14] = 20 mg/kg/dose ip, q 3 h × 8 (Days 1, 5, 9)
[15] = 30 mg/kg/dose ip, q 3 h × 8 (Days 1, 5, 9)
[16] = 50 mg/kg/dose ip, q 3 h × 8 (Days 1, 5, 9)

## Nc1nc(F)nc2c1ncn2[C@H]1C[C@H](O)[C@@H](CO)O1 [Y = F, X = H, 2-fluoro-2'-deoxyadenosine]
[1]; [11]
  IC50: 200 nM
[2]; CCRF-CEM human cell line
  IC50: 200 nM
[3]
  IC50: 900 nM
[4]
  metabolised at 500 µM: > 99%

## Nc1nc(Br)nc2c1ncn2[C@H]1C[C@H](O)[C@@H](CO)O1 [Y = Br, X = H]
[1]; [11]
  IC50: 20 nM
[2]; CCRF-CEM human cell line
  IC50: 20 nM
[3]
  IC50: 900 nM

## Nc1nc(Cl)nc2c1ncn2[C@@H]1O[C@H](COP(=O)(O)OP(=O)(O)OP(=O)(O)O)[C@@H](O)[C@@H]1F [2-chloro-9-(2-deoxy-2-fluoro-β-D-arabinofuranosyl)adenine 5'triphosphate]
[5]
  inhibition of ribonucleotide reductase (in words): the same as that seen with 2-chloro-2'-deoxyadenosine 5'-triphosphate

## Nc1nc(Cl)nc2c1ncn2[C@H]1C[C@H](O)[C@@H](CO)O1 [Y = Cl, X = H, 2-chloro-2'-deoxyadenosine]
[1]; [11]
  IC50: 30 nM
[2]; CCRF-CEM human cell line
  IC50: 3 nM
[3]
  IC50: 70 nM
[4]
  metabolised at 500 µM: > 99%

## Nc1nc(F)nc2c1ncn2[C@@H]1O[C@H](CO)[C@@H](O)[C@@H]1F [compound 3g, 2-Fluoro-9-(2-deoxy-2-fluoro-β-D-arabinofuranosyl)-9H-purin-6-amine]
[1]; [11]
  IC50: 340 nM
[2]; CCRF-CEM human cell line
  IC50: 140 nM
[6]; [12]
  IC50: 300 nM
[3]
  IC50: 380 nM
[7]; [13]
  Log10 change in viable tumor cell population: -0.1
  Median % ILS (dying mice only): +81%
  Tumor-free Survivors: 0/6
[7]; 100 mg/kg/dose ip, qd 1-5
  Log10 change in viable tumor cell population: -1.8
  Median % ILS (dying mice only): +63%
  Tumor-free Survivors: 0/3
[4]
  metabolised at 500 µM: 10%

## Nc1nc(F)nc2c1ncn2[C@@H]1O[C@H](CO)[C@@H](O)[C@@H]1O [Y = F, X = OH, 2-fluoro-9-β-D-arabinofuranosyladenine, reference compound]
[1]; Homo sapiens, HEp-2, read-out: Cytotoxicity as IC50, H.Ep.-2
  IC50: 9000 nM
[2]; Homo sapiens, CCRF-CEM
  IC50: 400 nM
[6]; Homo sapiens, K562, read-out: Cytotoxicity as IC50, K562
  IC50: 150 nM
[4]
  metabolised at 500 µM: 99%

## Nc1nc(Cl)nc2c1ncn2[C@@H]1O[C@H](CO)[C@@H](O)[C@@H]1O [Y = Cl, X = OH]
[1]; [11]
  IC50: 3000 nM
[2]; CCRF-CEM human cell line
  IC50: 10000 nM
[3]
  IC50: < 3000 nM

## Nc1nc(Cl)nc2c1ncn2[C@@H]1O[C@H](CO)[C@@H](O)[C@@H]1F [compound 3d, 2-Chloro-9-(2-deoxy-2-fluoro-B-D-arabinofuranosyl)-2,0 9H-purin-6-amine]
[1]; [11]
  IC50: 12 nM
[2]; CCRF-CEM human cell line
  IC50: 50 nM
[6]; [12]
  IC50: 3 nM
[3]
  IC50: 230 nM
[7]; [14]
  Log10 change in viable tumor cell population: -6.6
  Median % ILS (dying mice only): +220%
  Tumor-free Survivors: 1/6
[7]; [13]
  Log10 change in viable tumor cell population: -2.8
  Median % ILS (dying mice only): +118%
  Tumor-free Survivors: 0/5
[7]; 100 mg/kg/dose ip, qd 1-5
  Log10 change in viable tumor cell population: -0.3
  Median % ILS (dying mice only): +38%
  Tumor-free Survivors: 0/5
[7]; 200 mg/kg/dose ip, qd 1-5
  Log10 change in viable tumor cell population: -1.6
  Median % ILS (dying mice only): +59%
  Tumor-free Survivors: 0/3
[4]
  metabolised at 500 µM: 39%
[8]
  solubility (in words): greater solubility
[9]
  inhibition of DNA synthesis: inhibits DNA synthesis
[10]; q 6 h×4 on days 1, 5, and 9
  reduction in tumor burden: 1.7 log10 units
[10]; q 6 h×4 on days 1, 5, and 9, compared with ip
  reduction in tumor burden, shortfall versus ip drug administration: approximately 2.5 log10 units

## Nc1nc(F)nc2c1ncn2[C@@H]1O[C@H](COP(=O)(O)OP(=O)(O)OP(=O)(O)O)[C@@H](O)[C@@H]1O [9-β-D-arabinofuranosyl-2-fluoroadenine 5'triphosphate]
[5]
  inhibition of ribonucleotide reductase (in words): much less potent inhibitor
[5]; ratio of concentrations required
  concentration inhibiting ribonucleotide reductase relative to 2-chloro-9-(2-deoxy-2-fluoro-β-D-arabinofuranosyl)adenine 5' triphosphate: 10 fold

## Nc1nc(Br)nc2c1ncn2[C@@H]1O[C@H](CO)[C@@H](O)[C@@H]1F [compound 3b, 2-Bromo-9-(2-deoxy-2-fluoro-β-D-arabinofuranosyl)-9H-purin-6-amine]
[1]; [11]
  IC50: 220 nM
[2]; CCRF-CEM human cell line
  IC50: 20 nM
[6]; [12]
  IC50: 50 nM
[3]
  IC50: 260 nM
[7]; [15]
  Log10 change in viable tumor cell population: -1.0
  Median % ILS (dying mice only): +100%
  Tumor-free Survivors: 0/6
[7]; [16]
  Log10 change in viable tumor cell population: +1.6
  Median % ILS (dying mice only): +41%
  Tumor-free Survivors: 0/6
[7]; 200 mg/kg/dose ip, qd 1-5
  Log10 change in viable tumor cell population: +0.1
  Median % ILS (dying mice only): +33%
  Tumor-free Survivors: 0/6
[4]
  metabolised at 500 µM: 45%

## Nc1nc(Br)nc2c1ncn2[C@@H]1O[C@H](CO)[C@@H](O)[C@@H]1O [Y = Br, X = OH]
[1]; [11]
  IC50: 4000 nM
[3]
  IC50: 3000 nM
